Results on one compound are retold here after paper PMC8449059, “Structural and functional variation of chitin-binding domains of a lytic polysaccharide monooxygenase from Cellvibrio japonicus” (The Journal of Biological Chemistry, 2021).

The target in the test is T1, CjCBM5 (family 5 carbohydrate-binding module of CjLPMO10A) (Cellvibrio japonicus, UniProt B3PJ79).
T1 construct: gene cbp33A; isolated CBM5 domain, residues 251-309 of 397; extra N-terminal Met, C-terminal Ala + 6xHis tag kept; 15N-labelled; E. coli cytoplasmic expression (pNIC-CH)
Kind of test: NMR titration, […]-HSQC chemical shift perturbation. Particulars: 50 mM sodium phosphate, pH 7.0, 10% D2O; 70 uM 15N-labelled protein; average of W283, T284, Q285, Y296, G297.

T1 sequence (B3PJ79 entry or part of it): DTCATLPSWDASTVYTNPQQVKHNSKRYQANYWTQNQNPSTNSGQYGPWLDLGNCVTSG

A word on the Kd: it is the concentration at which binding is half-saturated. With `CC(=O)N[C@H]1[C@H](O[C@H]2[C@H](O)[C@@H](NC(C)=O)C(O[C@H]3[C@H](O)[C@@H](NC(C)=O)C(O[C@H]4[C@H](O)[C@@H](NC(C)=O)C(O[C@H]5[C@H](O)[C@@H](NC(C)=O)C(O[C@H]6[C@H](O)[C@@H](NC(C)=O)C(O)O[C@@H]6CO)O[C@@H]5CO)O[C@@H]4CO)O[C@@H]3CO)O[C@@H]2CO)O[C@H](CO)[C@@H](O)[C@@H]1O` (stereo partly shown) [chitohexaose], the Kd amounted to 2000 ± 1000 µM.
